Source: patent US9867794B2, “Regulation of osteopontin” (Pathologica LLC, priority 2007, dated 2018)
“And” between values parts separate entries of the source, which are not always exact repeats. Equal entries are not always repeated.

How the values were obtained:
[1] = tested on: CD14/16++ cells; assay: Yield of CD14/16++ cells in culture, flow cytometry; assay type: cell-based, human; conditions: 10 μM MGBG; for % Reduction 14/16, Average: 5th day
[2] = tested on: CD14+ cells; assay: Yield of CD14+ cells in culture, flow cytometry; assay type: cell-based, human; conditions: 10 μM MGBG; for % Reduction 14, Average: 5th day
[3] = tested on: IL10; assay: Microarray analysis of mononuclear cells, IL10 probe; assay type: cell-based, human; conditions: presence of MGBG, all samples
Description: (§1) Blood samples were obtained from HIV infected patients (N=9) with positive viral load and reduced CD4 counts, and non-HIV infected, healthy controls (N=6). Blood was collected into heparin anticoagulant tubes and mononuclear cells were isolated by Percoll gradient centrifugation. The cells from each sample were split into 2: one-half receives MGBG at concentration of 10 μM and the other half received no treatment. All samples were then cultured overnight in RPMI media with 10% fetal bovine serum at 37° C. under non-adherent conditions. The next day cells were collected by centrifugation, washed one time with PBS, and lysed by resuspension in TRIZOL, and total RNA was prepared according to manufacturer's instructions (Invitrogen, Carlsbad, Calif.). […] The RNA was then amplified for microarray analysis using a 2 cycle amplification protocol according to the manufacturer's instructions (Affymetrix, Santa Clara, Calif.). The amplified RNAs were then hybridized to Human Genome U133 plus 2.0 microarrays (Affymetrix) and expression data was obtained using an Affymetrix scanner and GCOS protocols. Microarray data was analyzed with GeneSpring Microarray Suite. Results were normalized using a set of 100 probe sets determined by the manufacturer to have relatively invariant expression across most cell types.

[4] = tested on: SPP1; assay: Microarray analysis of mononuclear cells, SPP1; assay type: cell-based, human; conditions: for SPP1 signal +, Average: 10 μM MGBG
Description: as §1

[5] = tested on: ADA; assay: Microarray analysis of mononuclear cells, ADA; assay type: cell-based, human; conditions: for ADA signal +, Average: 10 μM MGBG
Description: as §1

[6] = tested on: IL24; assay: Microarray analysis of mononuclear cells, IL24; assay type: cell-based, human; conditions: for IL24 signal +, Average: 10 μM MGBG
Description: as §1

[7] = tested on: mononuclear cells; assay: Microarray analysis, number of probes changed; assay type: cell-based, human; conditions: average signals, MGBG vs untreated samples
Description: as §1

[8] = tested on: G1P3; assay: Quantitative RT-PCR, unsorted mononuclear cells, G1P3; assay type: cell-based, human
Description: (§2) To evaluate the effect of MGBG on gene expression, blood samples were obtained from patients (N=18, 10 HIV-infected and 8 Healthy Controls). Mononuclear cells were isolated via Percoll gradient centrifugation. The cells were split into two tubes, one treated with 10 μM of MGBG and the other non-treated. The cells were then cultured overnight in RPMI media plus 10% fetal bovine serum at 37 C under non-adherent conditions, collected, lysed using Trizol solution, and total RNA prepared according to manufacturer's instructions (Invitrogen, Carlsbad, Calif.).
(§3) Approximately 200 ng of total RNA prepared from each sample was converted to cDNA using the First Strand cDNA Synthesis Kit for RT-PCR [AMV] kit (Roche Applied Diagnostics, Indianapolis, Ind.) according to manufacturer's instructions. Around 5 ng of cDNA sample was then used for PCR performed on a LightCycler (Roche Applied Diagnostics, Indianapolis, Ind.) using the LightCycler FastStart DNA Master SYBR Green I kit. PCR conditions are as follows: 1 cycle of denaturation at 95° C. for 10 minutes, followed by 45 cycles of 95° C. for 10 seconds, 68° C. for 10 seconds, and 72° C. for 16 seconds.
(§4) The sequences of gene-specific primers evaluated are listed below. All samples were also amplified with the human β-actin LightCycler-Primer set (Roche Diagnostics).

[9] = tested on: IL6; assay: Quantitative RT-PCR, unsorted mononuclear cells, IL6; assay type: cell-based, human
Description: as §2, §3, §4

[10] = tested on: TNFα; assay: QRT-PCR in CD14/CD16-separated cell fractions, TNFα RNA; assay type: cell-based, human; conditions: monocytes, 10 μM MGBG, p=0.03
Description: (§5) The changes induced by MGBG in different blood cell types were determined for osteopontin and adenosine deaminase and 7 other genes. For this experiment, blood samples were obtained from 6 healthy controls (3 men/3 women from 20 to 55 years of age) and mononuclear cells were isolated via Percoll gradient centrifugation. The cells were then incubated for 3 hours in RPMI media plus 10% fetal bovine serum at 37 C. At that point MGBG was added to 10 μM to half of each sample and then the cells were incubated at 37 C for 20 more hours. The cells were then bound to magnetic beads coated with antibodies to human CD16. Bound cells (CD16 expressing) were separated from unbound cells using an AutoMACs according to manufacturer's instructions (Miltenyi, Auburn Calif.). Then CD16+ cells are released from the magnetic beads and both the CD16+ and CD16− cells are combined with magnetic beads coated with antibodies to human CD14. Antibody bound and unbound cells were then separated using the AutoMACs machine. […] Cells that neither express CD16 nor CD14 (the −/− Cells). This is mostly T lymphocytes; 2. Cells that only express CD16. This includes contaminating granulocytes not removed by Percoll centrifugation and CD16+ monocytes with very low CD14 expression; 3. […] After separation, cells of each fraction are washed with PBS and the number of viable cells determined by trypan blue exclusion. […]

[11] = tested on: CD14; assay: QRT-PCR in CD14/CD16-separated cell fractions, CD14 RNA; assay type: cell-based, human; conditions: CD14/CD16++ macrophages, 10 μM MGBG, p=0.02
Description: as §5

[12] = tested on: Osteopontin; assay: Macrophage Osteopontin production in migration assays; assay type: cell-based; conditions: 10 μM MGBG; from >200 ng/mL without drug
Description: Additionally, cells being targeted by MGBG were investigated. […] To elucidate the effects of MGBG and OPN on cell motility, migration assays were conducted. MGBG at 10 μM inhibited macrophage Osteopontin production from >200 ng/mL to nondetectable levels while simultaneously inhibiting HeLa cell invasion into a Matrigel matrix.

[13] = tested on: SIVmac251; assay: SIV-infected, CD8-depleted rhesus macaques treated with MGBG: disease; assay type: in vivo
Description: These monkeys were then treated with MGBG as described.

[14] = 5th day of culture, individual donor samples (HIV or healthy)
[15] = average of control samples (C6-, M6-177)
[16] = 10 μM, individual donor samples
[17] = presence of 10 μM MGBG overnight, individual donor samples
[18] = 10 μM MGBG overnight, individual samples

CC(/C=N/NC(=N)N)=N\NC(=N)N [MGBG, 1,1′ [methylethanediylidene]dinitrilodiguanidine]
% Reduction 14/16 [1, 14]: 26% and 53% and 91% and 54% and 61% and <0% and 71%
% Reduction 14/16, Average ([1]; average of HIV samples): 60.3%
% Reduction 14/16, Average ([1]; average of healthy samples): 57.5%
% Reduction 14 [2, 14]: 26% (2×) and 21% and 53% and 76% and 31% and <0% and 58%
% Reduction 14, Average ([2]; average of HIV samples): 46.8%
% Reduction 14, Average ([2]; average of healthy samples): 28.5%
average change in IL10 signal, upregulated [3]: 5.6 fold
SPP1 signal +, Average ([4]; average of HIV samples): 498
SPP1 signal +, Average [4, 15]: 633
SPP1 fold change, ON/MGBG ratio (down-regulation) [4, 16]: 60.5 fold and 47.8 fold and 11.5 fold and 43.9 fold and 0.7 fold and 7.0 fold and 2.3 fold and 438.8 fold and 1.4 fold and 5.7 fold and 5.9 fold and 68.0 fold and 57.9 fold and 4.2 fold and 1.2 fold
samples with 2 fold or greater reductions in SPP1 signal ([4]; of the 15 samples evaluated): 12
SPP1 signal + [4, 17]: 1480 and 113 and 34 and 143 and 458 and 53 and 81 and 264 and 232 and 1519 and 1647 and 64 and 22 and 1684 and 487
ADA signal +, Average ([5]; average of HIV samples): 4029
ADA signal +, Average [5, 15]: 5520
ADA fold change, MGBG/ON ratio (up-regulation) [5, 16]: 3.2 fold (2×) and 2.9 fold and 5.6 fold and 3.6 fold (2×) and 3.7 fold and 4.2 fold and 51.2 fold and 14.6 fold and 5.9 fold and 2.0 fold and 18.3 fold and 2.3 fold and 22.3 fold
ADA regulation by MGBG ([5]; all samples tested): consistently up-regulated
ADA signal + [5, 17]: 769 and 6724 and 6874 and 1964 and 7488 and 5384 and 2900 and 5895 and 5781 and 6428 and 6731 and 1845 and 4290 and 832 and 5472
IL24 signal +, Average ([6]; average of HIV samples): 560
IL24 signal +, Average [6, 15]: 598
IL24 fold change, MGBG/ON ratio (up-regulation) [6, 16]: 5.4 fold and 1.2 fold (2×) and 3.3 fold and 0.3 fold and 0.5 fold and 0.2 fold and 5.5 fold and 2.6 fold and 4.5 fold (2×) and 0.03 fold and 192.1 fold and 0.6 fold and 26.0 fold
IL24 regulation after MGBG exposure ([6]; HIV infected samples but not controls): upregulated
IL24 signal + [6, 17]: 111 and 85 and 1940 and 178 and 375 and 578 and 206 and 1549 and 925 and 163 and 166 and 350 and 1364 and 59 and 577
probes down-regulated at least 1.5 fold [7]: 489 probes
probes up-regulated at least 1.5 fold [7]: 382 probes
Fold change G1P3 by QRT-PCR [8, 18]: 1.92 fold and −1.25 fold (2×) and 1.31 fold and −2.03 fold and −1.14 fold (2×) and −2.04 fold and 2.13 fold and 1.22 fold (2×) and −2.99 fold and −6.63 fold and −1.95 fold and −2.85 fold and 1.47 fold and −1.66 fold and 1.68 fold
G1P3 AVERAGE ([8]; 10 μM MGBG, all samples): 0.96 fold
G1P3 MAX ([8]; 10 μM MGBG, all samples): 2.13 fold
G1P3 MIN ([8]; 10 μM MGBG, all samples): −6.63 fold
Fold change IL6 by QRT-PCR [9, 18]: −5.31 fold and 3.71 fold and 1.04 fold and 1.01 fold and −2.93 fold and −4.17 fold and 2.20 fold and 2.83 fold and −2.71 fold and −4.06 fold and 1.74 fold (2×) and 1.30 fold and 1.46 fold and −6.15 fold and −1.09 fold and −5.46 fold and 14.72 fold
IL6 AVERAGE ([9]; 10 μM MGBG, all samples): 1.91 fold
IL6 MAX ([9]; 10 μM MGBG, all samples): 14.72 fold
IL6 MIN ([9]; 10 μM MGBG, all samples): −6.15 fold
TNFα RNA median signal relative to no MGBG [10]: 0.32
CD14 RNA median signal relative to no MGBG [11]: 0.55
macrophage Osteopontin production [12]: nondetectable
SIV-associated macrophages in the frontal cortex ([13]; 4 doses of MGBG, compared to non-treated): absence of SIV-associated macrophages
macrophage infiltration in brains ([13]; FIG. 9, treated infected macaques): no pathology was observed
illness (AIDS and dementia) ([13]; both trials, treated animals): none of the treated animals became ill
SIVE or DRG infiltration ([13]; first trial, 200, 300, 400 mg/m^2 weekly, 2 treated animals): no indications of SIVE or DRG infiltration
SIV disease ([13]; second trial, bi-weekly 250 mg/m^2, 2 treated animals): no evidence for SIV disease
